Experimental data as given in patent US20260317319A1, “NOVEL ERGOLINES AND METHODS OF TREATING MOOD DISORDERS” (Gilgamesh Pharma Inc., priority 2023, published 2026).
Read-outs that look alike come from different tables or passages of the source.

Assays:
5-HT2B receptor = biological target: T1, 5-HT2B receptor (Homo sapiens, UniProt P41595); assay: cell-based; type: cell-based; details: Ca2+ flux; for Emax: HEK293, agonist, read-out: 5-HT2B % Act @ Max Dose
T1 construct: expressed in transfected cells; host or cells: HEK293, stably transfected
T1 sequence (P41595 whole entry): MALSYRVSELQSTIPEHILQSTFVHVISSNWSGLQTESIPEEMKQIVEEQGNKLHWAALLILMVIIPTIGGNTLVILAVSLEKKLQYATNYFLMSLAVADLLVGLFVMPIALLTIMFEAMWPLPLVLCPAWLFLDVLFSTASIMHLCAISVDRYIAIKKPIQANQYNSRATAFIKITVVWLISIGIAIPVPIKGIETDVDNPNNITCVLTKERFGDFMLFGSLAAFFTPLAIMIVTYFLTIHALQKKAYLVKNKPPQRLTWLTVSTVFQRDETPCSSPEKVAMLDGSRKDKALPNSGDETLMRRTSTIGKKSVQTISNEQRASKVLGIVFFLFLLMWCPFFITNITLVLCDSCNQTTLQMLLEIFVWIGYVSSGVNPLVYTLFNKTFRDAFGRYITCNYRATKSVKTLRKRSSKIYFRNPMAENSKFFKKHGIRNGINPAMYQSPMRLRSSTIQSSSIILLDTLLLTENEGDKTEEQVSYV
Method in brief: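 FLIPR Tetra fluorescence read-out of calcium flux after compound addition. Receptor-expressing stable lines were used (HEK293 for 2A/2B; CHO with Gα15 for 1A), dye-loaded with Fluo-4 Direct and 2.5 mM final probenecid, 50 min at 37 °C.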

5-HT2C receptor [1] = biological target: T2, 5-HT2C receptor (Homo sapiens, UniProt P28335); assay: cell-based; details: read-out: 5-HT2C % Act @ Max Dose
T2 sequence (P28335 33-458): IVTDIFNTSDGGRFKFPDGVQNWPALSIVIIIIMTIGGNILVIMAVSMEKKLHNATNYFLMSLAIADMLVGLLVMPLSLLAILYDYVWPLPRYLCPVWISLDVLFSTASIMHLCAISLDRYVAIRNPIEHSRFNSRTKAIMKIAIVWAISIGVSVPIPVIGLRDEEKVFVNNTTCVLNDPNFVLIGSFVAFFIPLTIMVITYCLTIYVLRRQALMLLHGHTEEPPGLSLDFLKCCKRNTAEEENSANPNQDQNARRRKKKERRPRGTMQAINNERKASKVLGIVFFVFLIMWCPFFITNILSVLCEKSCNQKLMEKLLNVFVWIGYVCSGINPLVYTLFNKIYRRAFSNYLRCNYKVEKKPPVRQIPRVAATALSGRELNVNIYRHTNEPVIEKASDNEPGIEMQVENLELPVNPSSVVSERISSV

5-HT1A receptor = biological target: T3, 5-HT1A receptor (Homo sapiens, UniProt P08908); assay: cell-based; details: agonist, Ca2+ flux; for Emax: CHO, read-out: 5-HT1A % Act @ Max Dose
T3 construct: expressed in transfected cells; host or cells: CHO cells, stably transfected
T3 sequence (P08908 1-422): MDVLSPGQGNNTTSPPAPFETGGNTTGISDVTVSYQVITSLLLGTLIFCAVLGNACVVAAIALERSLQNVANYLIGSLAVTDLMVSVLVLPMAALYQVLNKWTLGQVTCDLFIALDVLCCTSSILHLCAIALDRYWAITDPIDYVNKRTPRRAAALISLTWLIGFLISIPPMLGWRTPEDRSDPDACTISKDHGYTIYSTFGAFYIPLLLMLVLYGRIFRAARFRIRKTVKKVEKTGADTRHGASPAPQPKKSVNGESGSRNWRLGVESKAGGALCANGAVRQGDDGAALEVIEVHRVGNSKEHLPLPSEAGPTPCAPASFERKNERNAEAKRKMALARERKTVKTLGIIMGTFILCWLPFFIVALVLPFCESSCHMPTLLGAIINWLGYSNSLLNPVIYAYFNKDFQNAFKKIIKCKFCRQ
Method in brief: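 Receptor agonism was assessed as intracellular calcium mobilization in stably transfected cells, with CHO cells additionally carrying Gα15 for the 5-HT1A readout. Calcium was monitored with Fluo-4 Direct dye.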

5-HT2A receptor [2] = biological target: T4, 5-HT2A receptor (Homo sapiens, UniProt P28223); assay: cell-based; type: cell-based; details: beta-arrestin recruitment; for Emax: read-out: 5-HT2A Arrestin % Act @ Max Dose
T4 sequence (P28223 whole entry, the tested form may be a part): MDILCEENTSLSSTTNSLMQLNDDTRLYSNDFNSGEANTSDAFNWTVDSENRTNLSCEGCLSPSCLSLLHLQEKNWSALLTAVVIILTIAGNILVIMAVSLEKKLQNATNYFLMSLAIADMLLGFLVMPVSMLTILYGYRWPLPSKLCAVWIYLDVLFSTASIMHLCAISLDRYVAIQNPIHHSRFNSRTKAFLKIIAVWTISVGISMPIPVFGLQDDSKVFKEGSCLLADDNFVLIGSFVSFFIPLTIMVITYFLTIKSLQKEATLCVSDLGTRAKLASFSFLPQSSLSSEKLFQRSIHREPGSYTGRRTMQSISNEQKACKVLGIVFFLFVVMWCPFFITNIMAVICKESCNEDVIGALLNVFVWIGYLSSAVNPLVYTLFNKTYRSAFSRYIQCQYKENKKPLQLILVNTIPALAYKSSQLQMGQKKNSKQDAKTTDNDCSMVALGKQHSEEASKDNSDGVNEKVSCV
Method in brief: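 Agonist activity expressed as percent of maximal control ligand signal after vehicle subtraction, from chemiluminescence (RLU). Cells carry ProLink-tagged 5-HT2A plus β-arrestin fused to β-gal deletion mutant; ligand-driven arrestin binding restores β-galactosidase activity (PathHunter). Cells pre-incubated at 37° C.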

C57BL/6 mice = assay: Mouse head twitch response (HTR) assay (observer-counted); type: in vivo; details: SC
Method: Agonists of the 5-HT2A receptor are well known to induce this effect in rodents and the potency of this HTR is correlated with hallucinogenic potency in humans.
Animals. Adult male C57BL/6 mice, aged 6-8 weeks (body weight 20-25 g) were used in this experiment. Animals were housed under controlled temperatures and 12-hour light/dark cycles (lights on between 07:00-19:00 h), with ad libitum food and water. This study was carried out in strict accordance with the requirements of the Committee for the Purpose of Control and Supervision of Experiments on Animals (CPCSEA), India. All efforts were made to minimize suffering.
Procedure. Mice were administered one dose of the drug and immediately placed into a small open field for behavioral observation. Animals were observed continuously for 20 mins and the number of head twitches (HTs) were counted by an observer blind to the treatment condition.
Statistical Analysis. The data points shown are the mean±standard error of the mean (SEM). Analysis was performed using GraphPad Prism 6. Curves were fit using a non-linear gaussian distribution to calculate ED50 and Emax values.
Additional disclosed compounds were tested in the mouse head twitch response (HTR) assay according to the procedure described in Example 57 (administered SC). […] Lastly, compounds with much larger benzyl and phenethyl substituents on the amine nitrogen (e.g., 10 and 11) were low efficacy in this assay, consistent with their bias toward arrestin signaling (see Example 55).

in vitro [3] = type: in vitro ADME, human
in vitro [4] = type: in vitro ADME, mouse
From the text: MLM Stability Pooled MLM from male CD-1 mice (BIOIVT M00501) were used.

in vitro [5] = type: in vitro ADME, rat
From the text: RLM Stability Pooled RLM from male Sprague-Dawley rats (Xenotech R1000) were used.

5-HT2A receptor [6] = biological target: T4, 5-HT2A receptor; assay: cell-based; type: cell-based; parameters: expressed in transfected cells; host or cells: HEK293, stably transfected; details: Ca2+ flux; for Emax: HEK293, agonist, read-out: 5-HT2A % Act @ Max Dose
Method in brief: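 Stable HEK293 (5-HT2A, 5-HT2B) or CHO/Gα15 (5-HT1A) cells; Fluo-4 Direct, probenecid 2.5 mM final; 50 min dye load, 37 °C, 5% CO2; agonist-mode Ca2+ flux, FLIPR Tetra.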

5-HT1B receptor = biological target: T5, 5-HT1B receptor (Homo sapiens, UniProt P28222); assay: cAMP accumulation functional assay at 5-HT1B; type: cell-based; details: agonist, cAMP accumulation
T5 construct: expressed in transfected cells
T5 sequence (P28222 whole entry): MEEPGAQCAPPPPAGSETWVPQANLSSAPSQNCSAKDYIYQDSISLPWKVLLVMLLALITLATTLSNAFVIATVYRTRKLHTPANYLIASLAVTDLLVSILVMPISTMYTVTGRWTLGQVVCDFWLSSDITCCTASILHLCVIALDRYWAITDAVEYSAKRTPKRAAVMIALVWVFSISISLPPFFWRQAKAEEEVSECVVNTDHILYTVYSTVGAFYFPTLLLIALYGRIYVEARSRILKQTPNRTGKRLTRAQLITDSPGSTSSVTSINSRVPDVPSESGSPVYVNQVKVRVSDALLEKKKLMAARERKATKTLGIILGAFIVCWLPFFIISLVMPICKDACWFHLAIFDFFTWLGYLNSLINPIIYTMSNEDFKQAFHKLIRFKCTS
Method in brief: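 Stably transfected human 5-HT1B cells were incubated 60 min at room temperature, after which detection reagent was applied for another 60 min at RT. The read-out was cAMP accumulation, used as a measure of agonist activity.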

5-HT2C receptor [7] = biological target: T2, 5-HT2C receptor; assay: Ca2+ flux functional assay at 5-HT2C (WuXi 5-HT2C protocol); type: cell-based; parameters: expressed in transfected cells; details: agonist, tested using WuXi 5-HT2C protocol
Method: Disclosed compounds were tested for agonist activity at several serotonin receptor subtypes (5-HT2A, […], 5-HT2C, and 5-HT1A) using Ca^2+ flux functional assays and the 5-HT1B receptor using a cAMP accumulation assay, with the results summarized in Table 4. […] Potent agonist activity was also observed at the other serotonin receptors tested, although the selectivity profile among the receptors varied across compounds. […] However, at the same time, the N-propyl compounds were more efficacious agonists at 5-HT2B than the corresponding N-methyl compounds. The selectivity of disclosed compounds for 5-HT2A over 5-HT2C and 5-HT1A was less predictable and varied widely across compounds. […] An azetidinyl amide substituent tended to increase potency at 5-HT1A relative to 5-HT2A.
Functional Assays at 5-HT2A, 5-HT2B, and 5-HT1A. Agonist activity at 5-HT2A, 5-HT2B, 5HT2C and 5-HT1A receptors was determined using a FLIPR Ca^2+ flux assay at WuXi AppTec (Hong Kong) Limited according to their standard protocols. Briefly, stably transfected cells expressing the receptor of interest and Gα15 in the case of 5-HT1A (HEK293 for 5-HT2A and 5-HT2B; CHO cells for 5-HT1A) were grown and plated in a 384 well plate and incubated at 37° C. and 5% CO2 overnight. A solution of 250 mM probenecid in 1 mL FLIPR assay buffer was prepared fresh. This was combined with a fluorescent dye (Fluo-4 Direct™) to make a final assay concentration of 2.5 mM. Compounds were diluted 1:3.16 for 10 points and 750 nL was added to a 384 well compound plate using ECHO along with 30 μL assay buffer. The fluorescent dye was then added to the assay plate along with assay buffer to a final volume of 40 μL. The cell plate was incubated for 50 min at 37° C. and 5% CO2 and placed into the FLIPR Tetra along with the compound plate. 10 μL of references and compounds were then transferred from the compound plate into the cell plate and the fluorescent signal was read.

5-HT2A receptor [8] = biological target: T4, 5-HT2A receptor; assay: biochemical; type: binding; parameters: expressed in transfected cells; host or cells: HEK293, stably transfected; details: [3H]ketanserin 1 nM; HEK293 stable cell line; 1 h, 25 °C
Method in brief: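 Test compounds competed with [^3H]ketanserin for receptor binding, and affinity was derived from the radioligand displacement.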

[9] = HLM 0.50 mg/mL, NADPH 1 mM, 1 μM compound, pH 7.4, 37° C., 60 min
[10] = MLM (male CD-1) 0.50 mg/mL, NADPH 1 mM, 1 μM compound, pH 7.4, 37° C., 60 min
[11] = RLM (male Sprague-Dawley) 0.50 mg/mL, NADPH 1 mM, 1 μM compound, pH 7.4, 37° C., 60 min

Row | Structure (SMILES) | Emax (5-HT2B receptor; HEK293, max dose) [%] | Emax (5-HT2C receptor [1]) [%] | Emax (5-HT1A receptor; CHO cells with Gα15, max dose) [%] | Emax (5-HT2A receptor [2]; agonist, max dose) [%] | 5-HT2A arrestin agonist class (5-HT2A receptor [2]) | HTR at most efficacious dose (bound) (C57BL/6 mice; 20 min) [HTR] | half-life (t1/2) (in vitro [3]; human, microsomes, pH 7.4) [min] | half-life (t1/2) (in vitro [4]; mouse, microsomes, pH 7.4) [min] | half-life (t1/2) (in vitro [5]; rat, microsomes, pH 7.4) [min] | Emax (5-HT2A receptor [6]; HEK293, max dose) [%] | Intrinsic clearance (Clint) (in vitro [3]; [9]) [µL/min/mg] | half-life (t1/2) (in vitro [3]; [9]) [min] | Intrinsic clearance (Clint) (in vitro [4]; [10]) [µL/min/mg] | half-life (t1/2) (in vitro [4]; [10]) [min] | Intrinsic clearance (Clint) (in vitro [5]; [11]) [µL/min/mg] | half-life (t1/2) (in vitro [5]; [11]) [min] | other results
1 | CCC(CC)NC(=O)[C@@H]1C=C2c3cccc4[nH]cc(c34)C[C@H]2N(C)C1 [Int14] | 9.84 | 99.1 | 102 | 44.4 | partial agonists | < 15 | 17.593 | 6.07 | 37.988 | 93.3 | – | – | – | – | – | – | –
2 | CCC[C@@H](C)NC(=O)[C@@H]1C=C2c3cccc4[nH]cc(c34)C[C@H]2N(C)C1 [Int17] | 25.5 | 102 | 113 | 38.8 | partial agonists | < 15 | 15.865 | 8.252 | 27.894 | 91.5 | – | – | – | – | – | – | # HTR/20 min at Most Efficacious Dose (C57BL/6 mice; most efficacious dose 0.32 mg/kg): 6.0 HTR/20 min
3 | CCN(CC)C(=O)[C@@H]1C=C2c3cccc4[nH]cc(c34)C[C@H]2N(Cc2ccnc(OC)c2)C1 [Compound 79] | – | – | – | – | – | – | – | – | – | – | 61.2 | 22.7 | 298.4 | 4.6 | 80.5 | 17.2 | EC50 (5-HT2B receptor; agonist, HEK293): > 10 µM; 5-HT2B % Act @ Max Dose (5-HT2B receptor; agonist, HEK293, max dose): 1.38%; EC50 (5-HT1A receptor; CHO cells with Gα15): 8.05 µM; 5-HT1A % Act @ Max Dose (5-HT1A receptor; CHO cells with Gα15, max dose): 77.71%; EC50 (5-HT1B receptor): > 10 µM; 5-HT1B % Act @ Max Dose (5-HT1B receptor; max dose): 42.45%; EC50 (5-HT2C receptor [7]; Ca2+ flux, read-out: 5-HT2C EC50 (* WuXi protocol)): > 10 µM; 5-HT2C % Act @ Max Dose (* WuXi protocol) (5-HT2C receptor [7]; max dose): 0.60* %; Ki (5-HT2A receptor [8]): 0.182 µM; EC50 (5-HT2A receptor [6]; agonist, HEK293): 2.5 µM; 5-HT2A % Act @ Max Dose (5-HT2A receptor [6]; agonist, HEK293, max dose): 68.17%
4 | C[C@H]1C[C@H](C)N1C(=O)[C@@H]1C=C2c3cccc4[nH]cc(c34)C[C@H]2N(C)C1 [Int11] | – | – | – | – | partial agonists | – | – | – | – | – | 53.9 | 25.7 | 100 | 13.9 | 25.3 | 54.9 | 5-HT2A Arrestin % Act @ Max Dose (5-HT2A receptor [2]; agonist, max dose): 49.27%; 5-HT2A arrestin Emax (bound) (5-HT2A receptor [2]; partial agonists): < 60%; ED50 (HTR) (C57BL/6 mice; 20 min, curve fit poor in some cases): 0.0154 mg/kg; Emax, HTR/20 min (C57BL/6 mice; curve fit poor in some cases): 10.93 HTR/20 min; efficacy in HTR assay (C57BL/6 mice; maximal effect): lower efficacy than analogous compounds bearing other amide substituents; # HTR/20 min at Most Efficacious Dose (C57BL/6 mice; most efficacious dose 0.1 mg/kg): 10.667 HTR/20 min
